Values quoted from earlier work in patent publication US20220168241A1, “SUSTAINED RELEASE C[…] METHOD OF PREPARATION THEREOF” (PHARMATHEN S.A., priority 2019, published 2022).

Molecular target: recombinant μ-opioid receptor (Homo sapiens, UniProt P35372)
Sequence (P35372 whole entry, species assumed): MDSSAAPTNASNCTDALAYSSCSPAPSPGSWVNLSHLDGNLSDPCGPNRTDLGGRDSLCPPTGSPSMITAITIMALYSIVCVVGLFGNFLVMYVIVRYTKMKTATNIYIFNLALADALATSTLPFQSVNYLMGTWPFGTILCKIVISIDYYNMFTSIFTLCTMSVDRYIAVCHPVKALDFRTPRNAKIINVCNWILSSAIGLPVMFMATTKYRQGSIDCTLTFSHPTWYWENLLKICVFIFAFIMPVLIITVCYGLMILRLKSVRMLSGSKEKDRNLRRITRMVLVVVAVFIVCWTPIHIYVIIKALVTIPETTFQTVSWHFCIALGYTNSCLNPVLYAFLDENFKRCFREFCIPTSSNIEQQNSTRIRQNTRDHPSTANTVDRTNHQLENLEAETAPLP

For `CC[C@@H](c1cccc(O)c1)[C@@H](C)CN(C)C` [Tapentadol], which “reduced affinity to recombinant μ-opioid receptor compared to morphine” value is on record?
Its value is 18 times.
